Patent publication US12187759B2, “TLR7 agonists” (Primmune Therapeutics, Inc., priority 2019, dated 2025)
Read-outs that look alike come from different tables or passages of the source.

Assays:
human TLR7 = biological target: T1, human TLR7 (Homo sapiens, UniProt Q9NYK1); experiment: TLR7 reporter cell assay (HEK293 cells stably expressing human TLR7 with NF-κB-driven SEAP reporter); assay type: cell-based; details: for EC50: fit of SEAP dose response, ymax from 28.5 μM resiquimod
T1 construct: host or cells: HEK293
T1 sequence (Q9NYK1 27-1049): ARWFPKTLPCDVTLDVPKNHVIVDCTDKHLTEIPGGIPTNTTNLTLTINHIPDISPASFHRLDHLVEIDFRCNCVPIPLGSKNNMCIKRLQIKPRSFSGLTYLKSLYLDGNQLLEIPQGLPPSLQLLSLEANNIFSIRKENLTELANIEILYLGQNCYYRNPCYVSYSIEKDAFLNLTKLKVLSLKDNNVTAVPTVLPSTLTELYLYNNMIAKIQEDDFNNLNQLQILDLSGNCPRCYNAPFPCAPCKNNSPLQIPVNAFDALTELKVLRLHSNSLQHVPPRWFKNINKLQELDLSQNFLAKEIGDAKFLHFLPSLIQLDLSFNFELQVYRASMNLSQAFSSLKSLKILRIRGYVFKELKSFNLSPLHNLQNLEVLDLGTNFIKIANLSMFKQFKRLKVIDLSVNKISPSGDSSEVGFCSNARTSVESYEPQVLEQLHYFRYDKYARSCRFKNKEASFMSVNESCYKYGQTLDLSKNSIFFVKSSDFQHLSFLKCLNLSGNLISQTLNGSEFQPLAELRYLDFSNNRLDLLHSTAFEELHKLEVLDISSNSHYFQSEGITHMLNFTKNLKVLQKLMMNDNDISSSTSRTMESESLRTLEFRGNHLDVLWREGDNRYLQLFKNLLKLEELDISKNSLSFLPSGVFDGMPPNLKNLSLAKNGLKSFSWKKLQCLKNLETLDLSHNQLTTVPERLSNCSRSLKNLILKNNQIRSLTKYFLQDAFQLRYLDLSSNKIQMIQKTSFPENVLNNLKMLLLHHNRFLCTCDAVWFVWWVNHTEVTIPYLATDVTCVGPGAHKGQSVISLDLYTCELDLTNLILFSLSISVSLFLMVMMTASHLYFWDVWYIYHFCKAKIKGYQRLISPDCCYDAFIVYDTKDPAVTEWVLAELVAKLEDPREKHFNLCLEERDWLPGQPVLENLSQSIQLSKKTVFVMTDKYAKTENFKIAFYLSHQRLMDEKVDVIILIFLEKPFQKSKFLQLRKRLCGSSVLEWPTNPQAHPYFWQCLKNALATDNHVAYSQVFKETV
Source text: The engagement of TLRs by cognate ligands triggers downstream signaling cascades, leading to the activation of NF-κB and other transcription factors which initiate various immunomodulatory effects. The human embryonic kidney cell line, HEK293, is essentially non-responsive to TLR agonists, but ectopic expression of TLRs in these cells allows cognate agonists to activate endogenous NF-κB. Accordingly, the HEK293-TLR-NF-κB inducible reporter system is used to assay TLR agonists.
HEK293 cell lines stably expressing human TLR7 or TLR8 together with an NF-κB-driven-secreted alkaline phosphatase (SEAP) reporter were invented at InvivoGen (San Diego, California, USA) and used to assess compounds of the present invention for TLR7 and TLR8 agonist activities. Cells were seeded at 2-5×10^4 cells/well in 96 well plates (200 μl/well) and treated with various concentrations of compound (10 μl) for 15-24 hours. SEAP activity was determined by measuring OD at 650 nm; the media used to culture the cell lines contains the reagents required for SEAP detection. The EC50 values in Table 1 are calculated from fitting the dose response of measured SEAP activity for each compound to the following equation: Y=ymax*c^nh/(EC50^nh+c^nh)+blank where Y is the experimentally measured OD650 at concentration c of test article, blank is the observed OD650 in the absence of TLR7 agonist, ymax is the difference between the measured OD650 in the presence of 28.5 μM resiquimod and the blank and values of EC50 and nh are determined by nonlinear least squares analysis. Resiquimod is a known TLR7 and TLR8 agonist.
Compound A is 5-amino-3-((2R,3R,5S)-3-hydroxy-5-((S)-1-hydroxypropyl)tetrahydrofuran-2-yl)thiazolo[4,5-d]pyrimidine-2,7(3H,6H)-dione)

[1] = tested on: hPBMCs (Human Peripheral Blood Mononuclear Cells); experiment: Induction of interferon-α in hPBMCs in vitro; assay type: cell-based; details: for Emax / minimal effective concentration: Homo sapiens, PBMC; for Emax: 24 h, peak IFNα2a as percentage of peak response of standard 2-Amino-7-(cyclopropylmethyl)-9-B-D-xylofuranosyl-7,9-dihydro-1H-purine-6,8-dione, averaged across donors, read-out: IFNrmax, Relative Maximal IFNα2a Production (%); for minimal effective concentration: minimal effective concentration for interferon-α production (generally at least 80 pg/ml above baseline), geometric mean across at least three donors, 24 hours, read-out: Weighted MEC
Description: Treatment of hPBMCs with a TLR7 agonist typically induces some production of interferon-α as well as lesser amounts of a variety of other cytokines and chemokines. A typical experiment uses hPBMCs isolated from a healthy donor and placed in replicate cell culture wells; typically 1.0-7.5×10^6 cells are placed in each well. A test compound is added and the cells are cultured for 24 hours at 37° C. in a humidified atmosphere containing 5% CO2 post-addition; untreated controls are included. Secreted interferon-α production is measured using an a multisubtype interferon-α ELISA kit like those from PBL Assay Sciences or specifically as IFNα2a as part of a panel of cytokines and chemokines using luminex methodologies.
The minimal effective concentration (MEC) is the minimum concentration in a dose response curve where a significant increase in interferon-α production (generally at least 80 pg/ml) is observed above baseline. MEC values for each compound are determined for at least three donors. The weighted MEC for each compound is the geometric mean of all individual MECs across all donors. Concentrations tested typically consist of a two-fold dilution series starting at 100 μM. In the calculation of weighted MEC, any individual MEC value greater the highest concentration tested is arbitrarily set to two times the highest concentration tested unless all MECs for a compound exceed this value. The maximal amount of IFNα2a for each donor is determined from dose dependence for each compound.
In order to normalize for variation in each hPBMC preparation, these values are first transformed by expressing as a percentage of peak response measured with a standard (2-Amino-7-(cyclopropylmethyl)-9-B-D-xylofuranosyl-7,9-dihydro-1H-purine-6,8-dione) and then averaging the results across all donors, this average referred to as IFNrmax.
IFNmax is the maximum amount of IFN observed at any concentration across the evaluated concentration range. MEC and IFNmax values for three select compound are shown for three donors (Table 3). The range of tested concentrations were 0.625-5 μM for Imiquimod, 3.125-100 μM for both Compound A and Compound 1, 12.5-100 μM for Compound 2.

[2] = HEK293, read-out: Response at 500 μM Compound as a Percent of Resiquimod Response
[3] = HEK293, 500 μM compound, SEAP activity (OD 650 nm) relative to 28.5 μM resiquimod, 15-24 hours, read-out: Response at 500 μM Compound as a Percent of Resiquimod Response

| SMILES | Emax at 500 µM (human TLR7; [2]) [%] | EC50 (human TLR7; 15-24 hours) [µM] | Emax at 500 µM (human TLR7; [3]) [%] | Emax [1] [%] | minimal effective concentration [1] [µM] | further results |
| --- | --- | --- | --- | --- | --- | --- |
| C#CCn1c(=O)n([C@@H]2O[C@H]([C@@H](O)C(F)(F)F)C[C@H]2O)c2nc(N)[nH]c(=O)c21 [Compound 10, 2-Amino-9-((2R,3R,5S)-3-hydroxy-5-((R)-2,2,2-trifluoro-1-hydroxyethyl)tetrahydrofuran-2-yl)-7-(prop-2-yn-1-yl)-7,9-dihydro-1H-purine-6,8-dione] | 72 | 311 |  |  |  |  |
| CC[C@H](O)[C@@H]1C[C@@H](O)[C@H](n2c(=O)n(C[C@@H](C)O)c3c(=O)[nH]c(N)nc32)O1 (single isomer, unassigned) [Compound 33] |  | 287 | 73 | 143 | 9.9 |  |
| CC(C)Cn1cnc2c(N)nc3ccccc3c21 [Imiquimod, reference compound] |  |  |  |  |  | Donor 1 MEC ([1]; Donor 1, interferon-α production): 5 µM; Donor 1 IFNmax ([1]; Donor 1, maximum IFN at any concentration of the evaluated range): 793 pg/mL; Donor 2 MEC ([1]; Donor 2, interferon-α production): 5 µM; Donor 2 IFNmax ([1]; Donor 2, maximum IFN at any concentration of the evaluated range): 193 pg/mL; Donor 3 MEC ([1]; Donor 3, interferon-α production): 1.25 µM; Donor 3 IFNmax ([1]; Donor 3, maximum IFN at any concentration of the evaluated range): 1350 pg/mL |
| CCCCn1c(=O)n([C@@H]2O[C@H]([C@@H](O)C(F)(F)F)C[C@H]2O)c2nc(N)[nH]c(=O)c21 [Compound 31, 2-Amino-7-butyl-9-((2R,3R,5S)-3-hydroxy-5-((R)-2,2,2-trifluoro-1-hydroxyethyl)tetrahydrofuran-2-yl)-7,9-dihydro-1H-purine-6,8-dione] |  | 210 | 78 | 71 | 6.3 |  |
| CC[C@H](O)[C@@H]1C[C@@H](O)[C@H](n2c(=O)n(CCO)c3c(=O)[nH]c(N)nc32)O1 [Compound 32, 2-Amino-9-((2R,3R,5S)-3-hydroxy-5-((S)-1-hydroxypropyl)tetrahydrofuran-2-yl)-7-(2-hydroxyethyl)-7,9-dihydro-1H-purine-6,8-dione] |  | 339 | 68 | 223 | 7.9 |  |
| C#CCn1c(=O)n([C@@H]2O[C@H](C(=O)CC)C[C@H]2O)c2nc(N)[nH]c(=O)c21 [Compound 37, 2-Amino-9-((2R,3R,5S)-3-hydroxy-5-propionyltetrahydrofuran-2-yl)-7-(prop-2-yn-1-yl)-7,9-dihydro-1H-purine-6,8-dione] | 40 | 462 |  |  |  |  |
| C#CCn1c(=O)n([C@@H]2O[C@H](C(=O)O)C[C@H]2O)c2nc(N)[nH]c(=O)c21 [Compound 40, (2S,4R,5R)-5-(2-Amino-6,8-dioxo-7-(prop-2-yn-1-yl)-1,6,7,8-tetrahydro-9H-purin-9-yl)-4-hydroxytetrahydrofuran-2-carboxylic acid] |  |  | < 5 | ≤ 10 | > 50 |  |
| C#CCn1c(=O)n([C@@H]2O[C@H]([C@@H](O)CC)[C@H](F)[C@H]2O)c2nc(N)[nH]c(=O)c21 [Compound 13, 2-Amino-9-((2R,3S,4R,5R)-4-fluoro-3-hydroxy-5-((S)-1-hydroxypropyl)tetrahydrofuran-2-yl)-7-(prop-2-yn-1-yl)-7,9-dihydro-1H-purine-6,8-dione] |  | 119 | 92 | 353 | ≤ 3.3 |  |
| C#CCn1c(=O)n([C@@H]2O[C@H]([C@H](O)CC)[C@H](F)[C@H]2O)c2nc(N)[nH]c(=O)c21 [Compound 12, 2-Amino-9-((2R,3S,4R,5R)-4-fluoro-3-hydroxy-5-((R)-1-hydroxypropyl)tetrahydrofuran-2-yl)-7-(prop-2-yn-1-yl)-7,9-dihydro-1H-purine-6,8-dione] | 6 | > 500 |  |  |  |  |
| C=C=Cn1c(=O)n([C@@H]2O[C@H]([C@H](O)CC)C[C@H]2O)c2nc(N)[nH]c(=O)c21 [Compound 3, 2-amino-9-((2R,3R,5S)-3-hydroxy-5-((R)-1-hydroxypropyl)tetrahydrofuran-2-yl)-7-(propa-1,2-dien-1-yl)-7,9-dihydro-1H-purine-6,8-dione] | < 5 |  |  |  |  |  |
| C#CCn1c(=O)n([C@@H]2O[C@H]([C@H](O)C(F)(F)F)C[C@H]2O)c2nc(N)[nH]c(=O)c21 [Compound 11, 2-Amino-9-((2R,3R,5S)-3-hydroxy-5-((S)-2,2,2-trifluoro-1-hydroxyethyl)tetrahydrofuran-2-yl)-7-(prop-2-yn-1-yl)-7,9-dihydro-1H-purine-6,8-dione] | < 5 |  |  |  |  |  |
| C#CCn1c(=O)n([C@@H]2O[C@@H](C(=O)CC)C[C@H]2O)c2nc(N)[nH]c(=O)c21 [Compound 38, 2-Amino-9-((2R,3R,5R)-3-hydroxy-5-propionyltetrahydrofuran-2-yl)-7-(prop-2-yn-1-yl)-7,9-dihydro-1H-purine-6,8-dione] | < 5 |  |  |  |  |  |
| C#CCn1c(=O)n([C@@H]2O[C@H](CO)[C@@H](F)[C@H]2O)c2nc(N)[nH]c(=O)c21 [Compound B, 2-Amino-9-((2R,3S,4S,5R)-4-fluoro-3-hydroxy-5-(hydroxymethyl)tetrahydrofuran-2-yl)-7-(prop-2-yn-1-yl)-7,9-dihydro-1H-purine-6,8-dione, reference compound] |  |  |  | 260 | 17.9 |  |
